Data published in patent US12264134B2 (Merck Sharp & Dohme LLC, priority 2018, dated 2025).
pIC50: −log10 of the molar value.

Each compound was assayed against IDO1 (Homo sapiens, UniProt P14902) (assay: IDO1 Cellular Assay in HeLa Cells Stimulated with IFNγ). Details: HeLa Cell Potency, IC50 (nM).
Assay type: cell-based

Sequence of IDO1 (P14902 whole entry): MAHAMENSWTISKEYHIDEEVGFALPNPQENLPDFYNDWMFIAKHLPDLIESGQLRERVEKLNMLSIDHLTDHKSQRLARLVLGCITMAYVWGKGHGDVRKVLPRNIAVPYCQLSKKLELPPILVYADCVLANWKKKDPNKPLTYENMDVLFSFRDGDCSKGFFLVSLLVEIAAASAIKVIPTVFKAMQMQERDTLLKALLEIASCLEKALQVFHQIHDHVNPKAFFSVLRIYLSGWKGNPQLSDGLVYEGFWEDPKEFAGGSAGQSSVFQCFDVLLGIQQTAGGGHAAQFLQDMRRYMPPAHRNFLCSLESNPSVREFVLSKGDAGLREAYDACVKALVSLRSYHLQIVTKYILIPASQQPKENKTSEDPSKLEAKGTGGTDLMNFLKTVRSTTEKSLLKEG

Work on `Cc1cccc(N2CCN(C(=O)Cn3nc(C(=O)N4CCC(=O)CC4)c4c3C[C@H]3C[C@@H]43)CC2)c1C` [Example 265, 1-[(3bR,4aR)-1-{2-[4-(2,3-dimethylphenyl)piperazin-1-yl]-2-oxoethyl}-3b,4,4a,5-tetrahydro-1H-cyclopropa[3,4]cyclopenta[1,2-c]pyrazole-3-carbonyl]piperidin-4-one] yielded an IC50 of less than 0.51 nM.

Same assay, conditions: read-out: HeLa Cell Potency, IC50

First: Cc1cccc(N2CCN(C(=O)Cn3nc(C(=O)N4CCC(NC(N)=O)CC4)c4c3C[C@H]3C[C@@H]43)CC2)c1C [Example 255, N-{1-[(3bR,4aR)-1-{2-[4-(2,3-dimethylphenyl)piperazin-1-yl]-2-oxoethyl}-3b,4,4a,5-tetrahydro-1H-cyclopropa[3,4]cyclopenta[1,2-c]pyrazole-3-carbonyl]piperidin-4-yl}urea]
Second: Cc1cccc(N2CCN(C(=O)Cn3nc(C(=O)N4CCC(NC(=O)C5CC5)CC4)c4c3C[C@H]3C[C@@H]43)CC2)c1C [Example 257, N-{1-[(3bR,4aR)-1-{2-[4-(2,3-dimethylphenyl)piperazin-1-yl]-2-oxoethyl}-3b,4,4a,5-tetrahydro-1H-cyclopropa[3,4]cyclopenta[1,2-c]pyrazole-3-carbonyl]piperidin-4-yl}cyclopropanecarboxamide]
The pIC50 of the first is 1.10 log units lower: 7.88 for the first, 8.98 for the second. The second is the more potent here.

`CC(=O)N(C)C1CCN(C(=O)c2nn(CC(=O)N3CCN(c4cccc(C)c4C)CC3)c3c2[C@@H]2C[C@@H]2C3)CC1` [Example 256, N-{1-[(3bR,4aR)-1-{2-[4-(2,3-dimethylphenyl)piperazin-1-yl]-2-oxoethyl}-3b,4,4a,5-tetrahydro-1H-cyclopropa[3,4]cyclopenta[1,2-c]pyrazole-3-carbonyl]piperidin-4-yl}-N-methylacetamide] and `Cc1cccc(N2CCN(C(=O)Cn3nc(C(=O)N4CC[C@H](C(C)(C)O)C4)c4c3C[C@H]3C[C@@H]43)CC2)c1C` [Example 262, 1-[4-(2,3-dimethylphenyl)piperazin-1-yl]-2-{(3bR,4aR)-3-[(3S)-3-(2-hydroxypropan-2-yl)pyrrolidine-1-carbonyl]-3b,4,4a,5-tetrahydro-1H-cyclopropa[3,4]cyclopenta[1,2-c]pyrazol-1-yl}ethan-1-one] are within 0.2 log units of each other in pIC50: 9.08 for the first, 9.09 for the second.

Going from `Cc1cccc(N2CCN(C(=O)Cn3nc(C(=O)N4CCC(N5CCC5)CC4)c4c3C[C@H]3C[C@@H]43)CC2)c1C` [Example 258, 2-{(3bR,4aR)-3-[4-(azetidin-1-yl)piperidine-1-carbonyl]-3b,4,4a,5-tetrahydro-1H-cyclopropa[3,4]cyclopenta[1,2-c]pyrazol-1-yl}-1-[4-(2,3-dimethylphenyl)piperazin-1-yl]ethan-1-one] to `Cc1cccc(N2CCN(C(=O)Cn3nc(C(=O)N4CCC(OCCO)CC4)c4c3C[C@H]3C[C@@H]43)CC2)c1C` [Example 277, 1-[4-(2,3-dimethylphenyl)piperazin-1-yl]-2-{(3bR,4aR)-3-[4-(2-hydroxyethoxy)piperidine-1-carbonyl]-3b,4,4a,5-tetrahydro-1H-cyclopropa[3,4]cyclopenta[1,2-c]pyrazol-1-yl}ethan-1-one], the pIC50 rises from 8.53 to greater than 9.29. The second is the more potent here.

First: Cc1cccc(N2CCN(C(=O)Cn3nc(C(=O)N4CCC(O)(CN5CCCCC5)CC4)c4c3C[C@H]3C[C@@H]43)CC2)c1C [Example 259, 1-[4-(2,3-dimethylphenyl)piperazin-1-yl]-2-[(3bR,4aR)-3-{4-hydroxy-4-[(piperidin-1-yl)methyl]piperidine-1-carbonyl}-3b,4,4a,5-tetrahydro-1H-cyclopropa[3,4]cyclopenta[1,2-c]pyrazol-1-yl]ethan-1-one]
Second: Cc1cccc(N2CCN(C(=O)Cn3nc(C(=O)N4CCC(O)(CO)CC4)c4c3C[C@H]3C[C@@H]43)CC2)c1C [Example 263, 1-[4-(2,3-dimethylphenyl)piperazin-1-yl]-2-{(3bR,4aR)-3-[4-hydroxy-4-(hydroxymethyl)piperidine-1-carbonyl]-3b,4,4a,5-tetrahydro-1H-cyclopropa[3,4]cyclopenta[1,2-c]pyrazol-1-yl}ethan-1-one]
The pIC50 of the first is 1.10 log units lower: 8.02 for the first, 9.12 for the second.

First: Cc1cccc(N2CCN(C(=O)Cn3nc(C(=O)N4CCN(CC(F)F)CC4)c4c3C[C@H]3C[C@@H]43)CC2)c1C [Example 260, 2-{(3bR,4aR)-3-[4-(2,2-difluoroethyl)piperazine-1-carbonyl]-3b,4,4a,5-tetrahydro-1H-cyclopropa[3,4]cyclopenta[1,2-c]pyrazol-1-yl}-1-[4-(2,3-dimethyl-phenyl)piperazin-1-yl]ethan-1-one]
Second: Cc1cccc(N2CCN(C(=O)Cn3nc(C(=O)N4CC[S+]([O-])CC4)c4c3C[C@H]3C[C@@H]43)CC2)c1C [Example 266, 4-[(3bR,4aR)-1-{2-[4-(2,3-dimethylphenyl)piperazin-1-yl]-2-oxoethyl}-3b,4,4a,5-tetrahydro-1H-cyclopropa[3,4]cyclopenta[1,2-c]pyrazole-3-carbonyl]-1lambda~4~,4-thiazinan-1-one]
The pIC50 of the first is 0.84 log units higher: 9.08 for the first, 8.24 for the second. The first is the more potent here.

`Cc1cccc(N2CCN(C(=O)Cn3nc(C(=O)N4CC[C@@H](O)C[C@@H]4C)c4c3C[C@H]3C[C@@H]43)CC2)c1C` [Example 261, 1-[4-(2,3-dimethylphenyl)piperazin-1-yl]-2-{(3bR,4aR)-3-[(2S,4R)-4-hydroxy-2-methylpiperidine-1-carbonyl]-3b,4,4a,5-tetrahydro-1H-cyclopropa[3,4]cyclopenta[1,2-c]pyrazol-1-yl}ethan-1-one] and `Cc1cccc(N2CCN(C(=O)Cn3nc(C(=O)N4CC[C@H](O)[C@@H](C)C4)c4c3C[C@H]3C[C@@H]43)CC2)c1C` [Example 282, 1-[4-(2,3-dimethylphenyl)piperazin-1-yl]-2-{(3bR,4aR)-3-[(3S,4S)-4-hydroxy-3-methylpiperidine-1-carbonyl]-3b,4,4a,5-tetrahydro-1H-cyclopropa[3,4]cyclopenta[1,2-c]pyrazol-1-yl}ethan-1-one] are within 0.2 log units of each other in pIC50: 9.02 for the first, 9.01 for the second.

Compared with `Cc1cccc(N2CCN(C(=O)Cn3nc(C(=O)N4CCC(O)C(CO)C4)c4c3C[C@H]3C[C@@H]43)CC2)c1C` (stereo partly drawn) [Example 264, 1-[4-(2,3-dimethylphenyl)piperazin-1-yl]-2-{(3bR,4aR)-3-[4-hydroxy-3-(hydroxymethyl)piperidine-1-carbonyl]-3b,4,4a,5-tetrahydro-1H-cyclopropa[3,4]cyclopenta[1,2-c]pyrazol-1-yl}ethan-1-one], `Cc1cccc(N2CCN(C(=O)Cn3nc(C(=O)N4CCOCC4CO)c4c3C[C@H]3C[C@@H]43)CC2)c1C` (stereo partly drawn) [Example 267, 1-[4-(2,3-dimethylphenyl)piperazin-1-yl]-2-{(3bR,4aR)-3-[3-(hydroxymethyl)morpholine-4-carbonyl]-3b,4,4a,5-tetrahydro-1H-cyclopropa[3,4]cyclopenta[1,2-c]pyrazol-1-yl}ethan-1-one] is 0.79 log units lower in pIC50: 8.89 for the first, 8.10 for the second. The first is the more potent here.

Going from `Cc1cccc(N2CCN(C(=O)Cn3nc(C(=O)N4CCC5(CC4)COC(CO)C5)c4c3C[C@H]3C[C@@H]43)CC2)c1C` (stereo partly drawn) [Example 268, 1-[4-(2,3-dimethylphenyl)piperazin-1-yl]-2-{(3bR,4aR)-3-[3-(hydroxymethyl)-2-oxa-8-azaspiro[4.5]decane-8-carbonyl]-3b,4,4a,5-tetrahydro-1H-cyclopropa[3,4]cyclopenta[1,2-c]pyrazol-1-yl}ethan-1-one] to `Cc1cccc(N2CCN(C(=O)Cn3nc(C(=O)N4CCOCC4CO)c4c3C[C@H]3C[C@@H]43)CC2)c1C` (stereo partly drawn) [Example 274, 1-[4-(2,3-dimethylphenyl)piperazin-1-yl]-2-{(3bR,4aR)-3-[3-(hydroxymethyl)morpholine-4-carbonyl]-3b,4,4a,5-tetrahydro-1H-cyclopropa[3,4]cyclopenta[1,2-c]pyrazol-1-yl}ethan-1-one], the pIC50 falls from 8.90 to 8.20 (0.70 log units). The first is the more potent here.

First: Cc1cccc(N2CCN(C(=O)Cn3nc(C(=O)N4CCS(=N)(=O)CC4)c4c3C[C@H]3C[C@@H]43)CC2)c1C [Example 269, 4-[(3bR,4aR)-1-{2-[4-(2,3-dimethylphenyl)piperazin-1-yl]-2-oxoethyl}-3b,4,4a,5-tetrahydro-1H-cyclopropa[3,4]cyclopenta[1,2-c]pyrazole-3-carbonyl]-1-imino-1lambda~6~,4-thiazinan-1-one]
Second: Cc1cccc(N2CCN(C(=O)Cn3nc(C(=O)N4CCCC(NC(N)=O)C4)c4c3C[C@H]3C[C@@H]43)CC2)c1C (stereo partly drawn) [Example 272, N-{1-[(3bR,4aR)-1-{2-[4-(2,3-dimethylphenyl)piperazin-1-yl]-2-oxoethyl}-3b,4,4a,5-tetrahydro-1H-cyclopropa[3,4]cyclopenta[1,2-c]pyrazole-3-carbonyl]piperidin-3-yl}urea]
The pIC50 of the first is 0.38 log units lower: 7.41 for the first, 7.79 for the second.

Going from `Cc1cccc(N2CCN(C(=O)Cn3nc(C(=O)N4CC5CCC(C4)N5C)c4c3C[C@H]3C[C@@H]43)CC2)c1C` [Example 270, 1-[4-(2,3-dimethylphenyl)piperazin-1-yl]-2-[(3bR,4aR)-3-(8-methyl-3,8-diazabicyclo[3.2.1]octane-3-carbonyl)-3b,4,4a,5-tetrahydro-1H-cyclopropa[3,4]cyclopenta[1,2-c]pyrazol-1-yl]ethan-1-one] to `Cc1cccc(N2CCN(C(=O)Cn3nc(C(=O)N4CCC5C(C4)NC(=O)N5C)c4c3C[C@H]3C[C@@H]43)CC2)c1C` (stereo partly drawn) [Example 273, 5-[(3bR,4aR)-1-{2-[4-(2,3-dimethylphenyl)piperazin-1-yl]-2-oxoethyl}-3b,4,4a,5-tetrahydro-1H-cyclopropa[3,4]cyclopenta[1,2-c]pyrazole-3-carbonyl]-1-methyloctahydro-2H-imidazo[4,5-c]pyridin-2-one], the pIC50 falls from 8.24 to 7.41 (0.83 log units). The first is the more potent here.

Compared with `Cc1cccc(N2CCN(C(=O)Cn3nc(C(=O)N4CCCCC4C(C)(C)O)c4c3C[C@H]3C[C@@H]43)CC2)c1C` (stereo partly drawn) [Example 271, 1-[4-(2,3-dimethylphenyl)piperazin-1-yl]-2-{(3bR,4aR)-3-[2-(2-hydroxypropan-2-yl)piperidine-1-carbonyl]-3b,4,4a,5-tetrahydro-1H-cyclopropa[3,4]cyclopenta[1,2-c]pyrazol-1-yl}ethan-1-one], `Cc1cccc(N2CCN(C(=O)Cn3nc(C(=O)N4CCC5(CC4)COC(CO)C5)c4c3C[C@H]3C[C@@H]43)CC2)c1C` (stereo partly drawn) [Example 275, 1-[4-(2,3-dimethylphenyl)piperazin-1-yl]-2-{(3bR,4aR)-3-[3-(hydroxymethyl)-2-oxa-8-azaspiro[4.5]decane-8-carbonyl]-3b,4,4a,5-tetrahydro-1H-cyclopropa[3,4]cyclopenta[1,2-c]pyrazol-1-yl}ethan-1-one] is 0.66 log units higher in pIC50: 8.44 for the first, 9.10 for the second. The second is the more potent here.
